Data set [1] has as its target T1, Hematopoietic prostaglandin D synthase (Homo sapiens, UniProt O60760). The data set is described as follows: Inhibition of HPGDS.
For data set [2], the target named is ERG (KCNH2 potassium channel) (Homo sapiens, UniProt Q12809). Put plainly: Displacement of dofetilide from ERG at 10 uM. As to conditions: probe dofetilide.
Data set [3] concerns Liver microsomes. Put plainly: Half life in human liver microsomes. The class given is ADME, Microsome.
The subject of data set [4] is Liver microsomes. The data set is described as follows: (§1) Metabolic stability in human liver microsomes assessed as compound remaining after 30 mins. The class given is ADME, Microsome. As to conditions: microsomes, 0.5 h. Background: Liver microsomes are a subcellular fraction often used to study metabolism.
Data set [5] in a line: as §1. Format: ADME, Microsome. Particulars: liver microsomes, read-out: Stability.
For data set [6], the target named is T1, Hematopoietic prostaglandin D synthase. The data set is described as follows: Inhibition of human recombinant HPGDS using PGH2 as substrate assessed as production of PGD2 preincubated for 10 mins prior substrate addition measured after 42 secs by TBA-based fluorescence assay.

T1 sequence (O60760 whole entry): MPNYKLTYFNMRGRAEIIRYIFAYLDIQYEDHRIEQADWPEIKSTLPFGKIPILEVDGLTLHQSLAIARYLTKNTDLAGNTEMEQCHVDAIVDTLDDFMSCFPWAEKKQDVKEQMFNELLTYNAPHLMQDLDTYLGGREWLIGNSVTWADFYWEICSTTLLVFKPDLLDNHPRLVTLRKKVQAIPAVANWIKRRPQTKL
Sequence of ERG (KCNH2 potassium channel) (Q12809 whole entry): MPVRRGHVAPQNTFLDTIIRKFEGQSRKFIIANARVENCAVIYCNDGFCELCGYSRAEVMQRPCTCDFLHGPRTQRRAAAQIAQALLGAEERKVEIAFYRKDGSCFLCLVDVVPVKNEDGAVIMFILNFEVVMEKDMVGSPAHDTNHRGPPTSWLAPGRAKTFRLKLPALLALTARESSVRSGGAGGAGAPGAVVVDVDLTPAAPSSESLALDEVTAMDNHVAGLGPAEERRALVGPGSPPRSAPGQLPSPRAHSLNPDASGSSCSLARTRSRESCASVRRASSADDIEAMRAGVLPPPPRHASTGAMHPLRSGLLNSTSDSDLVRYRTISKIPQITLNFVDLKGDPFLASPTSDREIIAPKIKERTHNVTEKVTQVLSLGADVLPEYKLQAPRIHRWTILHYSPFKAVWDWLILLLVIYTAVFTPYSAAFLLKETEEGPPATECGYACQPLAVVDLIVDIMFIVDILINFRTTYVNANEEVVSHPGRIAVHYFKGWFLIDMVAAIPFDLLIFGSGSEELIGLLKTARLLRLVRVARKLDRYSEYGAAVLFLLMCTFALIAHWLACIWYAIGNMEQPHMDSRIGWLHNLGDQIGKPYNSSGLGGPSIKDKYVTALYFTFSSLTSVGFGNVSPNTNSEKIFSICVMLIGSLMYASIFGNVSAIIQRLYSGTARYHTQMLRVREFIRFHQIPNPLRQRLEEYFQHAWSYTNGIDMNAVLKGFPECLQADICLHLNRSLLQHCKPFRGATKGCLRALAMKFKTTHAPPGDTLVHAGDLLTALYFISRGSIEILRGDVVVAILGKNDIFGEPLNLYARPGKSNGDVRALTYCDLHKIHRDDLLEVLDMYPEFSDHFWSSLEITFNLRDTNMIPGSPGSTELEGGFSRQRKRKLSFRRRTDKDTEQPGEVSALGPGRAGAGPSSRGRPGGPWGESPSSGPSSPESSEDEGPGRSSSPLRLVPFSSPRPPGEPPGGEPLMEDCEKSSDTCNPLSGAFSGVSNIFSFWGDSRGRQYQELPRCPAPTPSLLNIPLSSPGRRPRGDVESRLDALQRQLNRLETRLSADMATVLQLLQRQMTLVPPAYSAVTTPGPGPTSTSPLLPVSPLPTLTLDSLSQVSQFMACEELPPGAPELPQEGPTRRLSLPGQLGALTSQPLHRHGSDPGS

Compound `COc1ccccc1N1CCN(C(=O)c2ccc[nH]2)CC1` showed a 50% inhibitory concentration (IC50) in data set [1] of 6900 nM.
Regarding `O=C(NC1CCN(CC(F)(F)F)CC1)c1ccc(-c2ccccc2)nc1`, half-maximal inhibition in data set [1] (IC50) was put at 0.2 nM.
With `O=C(Nc1ccc(N2CCN(C(=O)N3CCOCC3)CC2)cc1)c1cnc(Oc2ccccc2)nc1`, the midpoint of inhibition in data set [1], the IC50, lay at 280 nM.
As for `O=C(NCCN1CCOCC1)c1ccc(-c2nccc3ccccc23)cc1`, the inhibition at 10 µM in data set [2] worked out at 3%. In the data set with Liver microsomes [3], this compound came in with a t1/2 of 1 h. Besides, the Stability in the data set with Liver microsomes [4] was 90%.
In the case of `Cc1nc(-c2ccccc2)sc1C(=O)Nc1ccc(S(N)(=O)=O)cc1`, the IC50 in data set [1] is less than 1 nM.
Take `Cc1cc2ccccc2c(-c2ccc(C(=O)NCCN3CCOCC3)cc2)n1`: in data set [5], the remaining at 0.5 h is 76%.
`O=C(NCCN1CCOCC1)c1ccc(-c2c(O)ccc3ccccc23)cc1`: the remaining at 0.5 h in data set [5] was 94%. For the same compound, in data set [6], the IC50 was 662 nM.
For `O=C(NCCN1CCOCC1)c1ccc(-c2ccccn2)cc1`, in data set [5], the remaining at 0.5 h came out at 20%. In addition, the IC50 in data set [6] was 274 nM.

A word on the IC50: it is the concentration that gives 50% inhibition. As a reminder, the inhibition is how much of the control response was suppressed. A high value points to strong suppression.

Source of the values: ChEMBL document CHEMBL2034964, “Investigation of the binding pocket of human hematopoietic prostaglandin (PG) D2 synthase (hH-PGDS): a tale of two waters” (Bioorg Med Chem Lett, 2012).
